Earlier results on two compounds are cited in patent publication US20230000809A1, “TREATMENT OF DISORDERS ARISING FROM GENETIC MUTATION” (priority 2021, published 2023).

Structures can show the parent of a compound that is named as a salt.

For data set [1], the system named is gadolinium enhancing lesions. To be noted: RRMS patients; after 24 weeks of treatment as compared to placebo.
Data set [2] concerns nuclear factor kappa B (NF-κB)-dependent transcription of TNF-α induced genes. To be noted: human endothelial cells, in vitro.

As for `COC(=O)/C=C/C(=O)OC` [BG-12], in data set [1], the “number of gadolinium enhancing lesions” value is given as “significant reduction”. In the case of `COC(=O)/C=C/C(=O)OC` [DMF, dimethyl fumarate], the “effect on NF-κB-dependent transcription of TNF-α induced genes” value in data set [2] is “inhibitory effect”.
